Measured values: PMC9637222, “Autoinducer-2 and bile salts induce c-di-GMP synthesis to repress the T3SS via a T3SS chaperone” (Nature Communications, 2022)
“And” between values parts separate entries of the source, which are not always exact repeats. Equal entries are not always repeated. Where two headings read alike, the source gives them in different places.

Legend:
[1] = target: T1, SicA K27A (Salmonella typhimurium, UniProt P69066, K27A); format: binding, S. Typhimurium
T1 construct: His6 (N, cleaved yes); made in house; host or cells: E. coli BL21(DE3), pET-28a (pET28a-sicAK27A)
T1 sequence (P69066 whole entry K27A): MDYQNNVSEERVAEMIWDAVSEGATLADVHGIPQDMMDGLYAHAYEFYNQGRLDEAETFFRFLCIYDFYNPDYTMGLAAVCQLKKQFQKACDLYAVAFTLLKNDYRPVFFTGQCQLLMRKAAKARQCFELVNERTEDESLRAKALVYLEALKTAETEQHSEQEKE

[2] = target: PcrH (WP_003113548) (Pseudomonas aeruginosa, UniProt Q9I325); format: binding; conditions: for Kd: ITC
Chain of PcrH (WP_003113548) (Q9I325 1-167): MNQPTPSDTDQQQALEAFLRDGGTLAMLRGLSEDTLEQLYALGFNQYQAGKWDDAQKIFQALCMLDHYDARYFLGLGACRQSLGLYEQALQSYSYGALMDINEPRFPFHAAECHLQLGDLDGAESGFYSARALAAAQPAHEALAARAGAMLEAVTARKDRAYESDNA

[3] = test system: InvF-His6 / SicA-HA; test: Co-IP of InvF-His6 with SicA-HA in presence of nucleotides; conditions: nucleotide added to lysate
[4] = target: T2, SicA D67A (Salmonella typhimurium, UniProt P69066, D67A); format: binding, S. Typhimurium
T2 construct: His6 (N, cleaved yes); made in house; host or cells: E. coli BL21(DE3), pET-28a (pET28a-sicAD67A)
T2 sequence (P69066 whole entry D67A): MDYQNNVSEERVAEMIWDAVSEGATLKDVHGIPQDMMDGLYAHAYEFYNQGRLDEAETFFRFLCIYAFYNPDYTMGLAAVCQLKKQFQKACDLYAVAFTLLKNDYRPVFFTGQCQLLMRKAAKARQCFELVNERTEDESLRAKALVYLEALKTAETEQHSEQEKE

[5] = target: T3, CesD (WP_000379288) (Escherichia coli O157:H7, UniProt Q8X6H6); format: binding, EHEC O157:H7; conditions: for Kd: ITC
T3 sequence (Q8X6H6 1-163): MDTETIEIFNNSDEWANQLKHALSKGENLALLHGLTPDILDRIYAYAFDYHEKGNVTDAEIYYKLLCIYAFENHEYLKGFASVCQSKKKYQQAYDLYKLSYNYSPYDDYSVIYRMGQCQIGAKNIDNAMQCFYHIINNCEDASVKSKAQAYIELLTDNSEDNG

[6] = test system: T4, T3SS ATPase InvC (STM2894); test: ITC: c-di-GMP binding to T3SS ATPase InvC; conditions: T3SS ATPase from S. Typhimurium
T4 construct: His6 (N, cleaved yes); made in house; host or cells: E. coli BL21(DE3) (pET28a-invC)
Experimental: (§1) Supplementary Fig. 25 Neither the T3SS ATPase InvC (STM2894) from S. Typhimurium nor the T3SS ATPase PA1697 from P. aeruginosa interacts with c-di-GMP
(§2) The binding affinity was evaluated by ITC analysis. ITC data and plots of injected heat for automatic injections of 100 μM c-di-GMP into the sample cell containing 10 μM InvC (a) or PA1697 (b) are shown inthe upper and lower plots, respectively. […]
(§3) the finalanalysis. Results shown are one representative of three experiments with similar results.

[7] = target: T5, BicA (WP_009896148) (Burkholderia thailandensis, UniProt Q2T712); format: binding
T5 sequence (Q2T712 1-171): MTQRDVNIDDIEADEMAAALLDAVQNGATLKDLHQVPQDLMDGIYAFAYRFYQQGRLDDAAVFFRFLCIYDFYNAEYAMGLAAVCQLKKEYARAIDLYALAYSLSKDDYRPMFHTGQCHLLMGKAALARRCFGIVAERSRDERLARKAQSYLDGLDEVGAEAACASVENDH

[8] = target: T6, InvF (Salmonella typhimurium, UniProt P69343); test: ITC: c-di-GMP binding to InvF; set-up: His6 (N, cleaved yes); made in house; host or cells: E. coli BL21(DE3), pET-28a (pET28a-invF); species or system S. Typhimurium
T6 sequence (P69343 1-216): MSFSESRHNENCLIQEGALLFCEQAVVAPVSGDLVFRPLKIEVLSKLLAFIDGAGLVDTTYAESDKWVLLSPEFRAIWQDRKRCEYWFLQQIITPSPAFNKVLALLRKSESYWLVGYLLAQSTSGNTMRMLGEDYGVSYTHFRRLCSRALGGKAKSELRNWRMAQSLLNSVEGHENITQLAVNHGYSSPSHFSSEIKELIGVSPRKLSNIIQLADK

[9] = target: T7, SicA N70A (Salmonella typhimurium, UniProt P69066, N70A); format: binding, S. Typhimurium
T7 construct: His6 (N, cleaved yes); made in house; host or cells: E. coli BL21(DE3), pET-28a (pET28a-sicAN70A)
T7 sequence (P69066 whole entry N70A): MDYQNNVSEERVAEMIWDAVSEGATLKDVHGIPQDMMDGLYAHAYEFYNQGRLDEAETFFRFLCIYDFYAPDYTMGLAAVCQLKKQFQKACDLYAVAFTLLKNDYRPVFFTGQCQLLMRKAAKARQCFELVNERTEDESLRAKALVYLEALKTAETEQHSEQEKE

[10] = target: T8, SicA (Salmonella typhimurium, UniProt P69066); test: ITC: nucleotide (c-di-GMP, c-di-AMP, cGMP) binding to SicA; set-up: species or system S. Typhimurium
T8 construct: His6 (N, cleaved yes); made in house; host or cells: E. coli BL21(DE3), pET-28a (pET28a-sicA)
T8 sequence (P69066 whole entry): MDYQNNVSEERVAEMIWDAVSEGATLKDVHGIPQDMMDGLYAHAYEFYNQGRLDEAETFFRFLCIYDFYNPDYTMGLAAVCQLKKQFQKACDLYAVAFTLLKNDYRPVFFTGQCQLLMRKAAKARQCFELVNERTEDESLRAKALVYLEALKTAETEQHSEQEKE

[11] = test system: SipC-His6 / SicA-HA; test: Co-IP of SipC-His6 with SicA-HA in presence of c-di-GMP; conditions: dose-dependent
[12] = test system: T3SS ATPase PA1697; test: ITC: c-di-GMP binding to T3SS ATPase PA1697; conditions: T3SS ATPase from P. aeruginosa
Experimental: as §1, §2, §3

[13] = target: T9, SycD (WP_010891209) (Yersinia enterocolitica, UniProt O87496); format: binding; conditions: for Kd: ITC
T9 sequence (O87496 1-168): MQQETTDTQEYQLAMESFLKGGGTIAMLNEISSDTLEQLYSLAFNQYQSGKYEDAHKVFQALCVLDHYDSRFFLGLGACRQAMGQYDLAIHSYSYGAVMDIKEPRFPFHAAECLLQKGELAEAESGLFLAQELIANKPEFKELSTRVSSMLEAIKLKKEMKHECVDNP

[14] = target: T10, SicA Q34A (Salmonella typhimurium, UniProt P69066, Q34A); format: binding, S. Typhimurium
T10 construct: His6 (N, cleaved yes); made in house; host or cells: E. coli BL21(DE3), pET-28a (pET28a-sicAQ34A)
T10 sequence (P69066 whole entry Q34A): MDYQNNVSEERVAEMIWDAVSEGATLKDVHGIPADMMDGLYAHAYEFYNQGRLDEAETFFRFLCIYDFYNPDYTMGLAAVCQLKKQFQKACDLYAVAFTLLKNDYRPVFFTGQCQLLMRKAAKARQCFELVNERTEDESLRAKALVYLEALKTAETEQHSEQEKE

[15] = range given for all 6 chaperones (PcrH, IpgC, SycD, CesD, BicA, VcrH), read-out: Kd
[16] = individual experiments, source data Fig. 5a

## Nc1nc2c(ncn2C2OC3COP(=O)(O)OC4C(COP(=O)(O)OC3C2O)OC(n2cnc3c(=O)[nH]c(N)nc32)C4O)c(=O)[nH]1 (centres unmarked) [c-di-GMP, Cyclic di-GMP]
[1]; ITC binding stoichiometry n, individual replicates, Supplementary Figure 17a
  n, c-di-GMP binding to SicAK27A: 1.03 and 0.93 and 0.96
[1]; binding to SicA K27A
  Kd: 41 µM and 33 µM and 39 µM
[2]; ITC binding stoichiometry n, individual replicates, Supplementary Figure 22a
  n, c-di-GMP binding to PcrH: 1.15 and 1.14 and 1.18
[2]; individual replicates, Supplementary Figure 22a, read-out: Kd, c-di-GMP binding to PcrH
  Kd: 0.13 µM and 0.19 µM
[2]; [15]
  Kd: 0.15 to 0.22 µM
[3]
  Effect on co-IP of InvF-His6 with SicA-HA (in words): impaired
[4]; ITC binding stoichiometry n, individual replicates, Supplementary Figure 17d
  n, c-di-GMP binding to SicAD67A: 0.99 and 1.02 and 0.94
[4]; binding to SicA D67A
  Kd: 33 µM and 34 µM and 32 µM
[5]; ITC binding stoichiometry n, individual replicates, Supplementary Figure 22d
  n, c-di-GMP binding to CesD: 1.03 and 1.09 and 1.15
[5]; individual replicates, Supplementary Figure 22d, read-out: Kd, c-di-GMP binding to CesD
  Kd: 0.17 µM and 0.18 µM and 0.19 µM
[5]; [15]
  Kd: 0.15 to 0.22 µM
[6]
  Interaction with T3SS ATPase (in words): no interactions
[7]
  Kd: 0.15 to 0.22 µM
  n, c-di-GMP binding to BicA: 1.12 and 1.17 and 1.14
[7]; read-out: Kd, c-di-GMP binding to BicA
  Kd: 0.19 µM and 0.2 µM and 0.24 µM
[8]
  Binding to InvF (in words): does not bind
[9]; ITC binding stoichiometry n, individual replicates, Supplementary Figure 17e
  n, c-di-GMP binding to SicAN70A: 0.95 and 1.03
[9]; ITC, peer review file
  Increase in Kd, SicA N70A versus SicA: 140 fold
[9]; binding to SicA N70A
  Kd: 28 µM and 31 µM and 32 µM
[10]; c-di-GMP : SicA WT, mean ± s.d. of three independent experiments
  Kd: 0.21 ± 0.09 µM
[10]; [16]
  Kd: 0.32 µM and 0.1 µM
  n (complex stoichiometry): 1.14 and 1.11 and 1.21
[11]
  Effect on co-IP of SipC-His6 with SicA-HA (in words): decreased
[12]
  Interaction with T3SS ATPase (in words): no interactions
[13]; ITC binding stoichiometry n, individual replicates, Supplementary Figure 22c
  n, c-di-GMP binding to SycD: 1.15 and 1.12
[13]; individual replicates, Supplementary Figure 22c, read-out: Kd, c-di-GMP binding to SycD
  Kd: 0.18 µM and 0.15 µM and 0.16 µM
[13]; [15]
  Kd: 0.15 to 0.22 µM
[14]; ITC binding stoichiometry n, individual replicates, Supplementary Figure 17c
  n, c-di-GMP binding to SicAQ34A: 1.05 and 1.09
[14]; binding to SicA Q34A
  Kd: 15 µM and 12 µM and 14 µM
